# Assay results published in patent publication US20110152086A1, “Herbicidal Compositions Comprising Flufenacet” (BAYER CROPSCIENCE AG, priority 2009, published 2011).
# Like-named read-outs stand apart in the source and are kept apart here.
# Legend:
# VIOAR [1] = assay: Greenhouse trial, PE soil application vs incorporation into the soil (Table 1a); format: in vivo, Viola arvensis; settings: (A) 90, (B) 1200 g of AS/ha
# Protocol: (§1) In the standard design of the test, seeds of various broad-leaved weed and weed grass biotypes (origins) were sown in a 8-13 cm diameter pot filled with natural soil of a standard field soil (loamy silt; non-sterile) and covered with a covering soil layer of about 1 cm. The pots were then cultivated in a greenhouse (12-16 h of light, temperature day 20-22° C., night 15-18° C.) until the time of application. The pots were treated on a laboratory track sprayer with spray liquors comprising the compositions according to the invention, mixtures of the prior art or components used individually. Application of the active compounds or active compound combinations formulated as WG, WP, EC or otherwise was carried out at the appropriate growth stages of the plants. The application rate for the spray application was 100-600 l of water/ha. After the treatment, the plants were returned to the greenhouses.
# (§2) About 3 weeks after the application, the soil action or/and foliar action was assessed visually according to a scale of 0-100% in comparison to an untreated comparative group: 0%=no noticeable effect compared to the untreated comparative group; 100%=full effect compared to the untreated comparative group.
# (§3) (notes: the term “seeds” also includes vegetative propagation forms such as, for example, rhizome pieces; abbreviations used: h light=hours of illumination, g of AS/ha=gram of active substance per hectare, l/ha=liter per hectare, S=sensitive, R=resistant) • 1. Pre-emergence action against weeds: seeds of various broad-leaved weed and weed grass biotypes (origins) were sown in a 8-13 cm diameter pot filled with natural soil of a standard field soil (loamy silt; non-sterile) and covered with a covering soil layer of about 1 cm. The pots were then cultivated in a greenhouse (12-16 h of light, temperature day 20-22° C., night 15-18° C.) until the time of application. The pots were treated at the BBCH stage 00-10 of the seeds/plants on a laboratory track sprayer with spray liquors comprising the compositions according to the invention, mixtures or components used individually, as WG, WP, EC or other formulations. The application rate for the spray application was 100-600 l of water/ha. After the treatment, the plants were returned to the greenhouses and, when required, treated with fertilizer and watered. • 2. Post-emergence action against weeds: seeds of various broad-leaved weed and weed grass biotypes (origins) were sown in a 8-13 cm diameter pot filled with natural soil of a standard field soil (loamy silt; non-sterile) and covered with a covering soil layer of about 1 cm. The pots were then cultivated in a greenhouse (12-16 h of light, temperature day 20-22° C., night 15-18° C.) until the time of application. […]
# VIOAR [2] = assay: Greenhouse trial, PO application (Table 2); format: in vivo, Viola arvensis; settings: (A) 120, (B) 1600 g of AS/ha
# Protocol: as §1
# as §2, with “group. […]” for “group.”
# STEME [3] = assay: Greenhouse trial, PO application (Table 2); format: in vivo, Stellaria media; settings: (A) 120, (B) 1600 g of AS/ha
# Protocol: as §1
# as §2, with “group. […]” for “group.”
# LOLPE [4] = assay: Greenhouse trial, PO application (Table 2); format: in vivo, Lolium perenne; settings: (A) 120, (B) 1600 g of AS/ha
# Protocol: as §1
# as §2, with “group. […]” for “group.”
# HORVS = assay: Greenhouse trial, selective PO application (Table 2); settings: Hordeum vulgare (summer barley), in vivo
# Protocol: as §1
# as §2, with “group. […]” for “group.”
# LOLPE [5] = assay: Greenhouse trial, PE application vs application 7 days prior to sowing (Table 3); format: in vivo, Lolium perenne; settings: (A) 90, (B) 1200 g of AS/ha
# Protocol: as §1, §2, §3
# AVEFA = assay: as above; format: in vivo, Avena fatua; settings: (A) 90, (B) 1200 g of AS/ha
# Protocol: as §1, §2, §3
# POOAN = assay: as above; format: in vivo, Poa annua; settings: (A) 90, (B) 1200 g of AS/ha
# Protocol: as §1, §2, §3
# TRZAW = assay: Greenhouse trial, PE application, crop (Table 3); settings: Triticum aestivum (winter wheat), in vivo
# Protocol: as §1
# as §2, with “group. […]” for “group.”
# TRZAS [6] = assay: Greenhouse trial, application 7 days prior to sowing, crop (Table 3); settings: Triticum aestivum (summer wheat), in vivo
# Protocol: as §1
# as §2, with “group. […]” for “group.”
# LOLPE [7] = assay: Greenhouse trial, PE application with different soil types (Table 4); format: in vivo, Lolium perenne; settings: (A) 120, (B) 1200 g of AS/ha
# Protocol: as §1, §2
# (§4) (notes: the term “seeds” also includes vegetative propagation forms such as, for example, rhizome pieces; abbreviations used: h light=hours of illumination, g of AS/ha=gram of active substance per hectare, l/ha=liter per hectare, S=sensitive, R=resistant) • 1. Pre-emergence action against weeds: seeds of various broad-leaved weed and weed grass biotypes (origins) were sown in a 8-13 cm diameter pot filled with natural soil of a standard field soil (loamy silt; non-sterile) and covered with a covering soil layer of about 1 cm. The pots were then cultivated in a greenhouse (12-16 h of light, temperature day 20-22° C., night 15-18° C.) until the time of application. The pots were treated at the BBCH stage 00-10 of the seeds/plants on a laboratory track sprayer with spray liquors comprising the compositions according to the invention, mixtures or components used individually, as WG, WP, EC or other formulations. The application rate for the spray application was 100-600 l of water/ha. After the treatment, the plants were returned to the greenhouses and, when required, treated with fertilizer and watered. • 2. Post-emergence action against weeds: seeds of various broad-leaved weed and weed grass biotypes (origins) were sown in a 8-13 cm diameter pot filled with natural soil of a standard field soil (loamy silt; non-sterile) and covered with a covering soil layer of about 1 cm. The pots were then cultivated in a greenhouse (12-16 h of light, temperature day 20-22° C., night 15-18° C.) until the time of application. The pots were treated at various BBCH stages between 11-25 of the seeds/plants, i.e. generally between two to three weeks after the start of the cultivation, on a laboratory track sprayer with spray liquors comprising the compositions according to the invention, mixtures or components used individually, as WG, WP, EC or other formulations. The application rate for the spray application was 100-600 l of water/ha. After the treatment, the plants were returned to the greenhouses and, when required, treated with fertilizer and watered. • 3. Pre-emergence action against weeds with and without incorporation of active compound: seeds of various broad-leaved weed and weed grass biotypes (origins) were sown in a 8-13 cm diameter pot filled with natural soil of a standard field soil (loamy silt; non-sterile). […]
# TRZAS [8] = assay: Greenhouse trial, PE application with different soil types, crop (Table 4); settings: Triticum aestivum (summer wheat), in vivo
# Protocol: as §1, §2, §4
# LOLSS = assay: Greenhouse trial, PE application on sensitive and resistant biotypes (Table 5); format: in vivo, Lolium species; settings: for activity, LOLSS resistant: resistant biotype; for activity, LOLSS resistant / activity, LOLSS Sensitive: (A) 90, (B) 1200, iodosulfuron 10 g of AS/ha; for activity, LOLSS Sensitive: sensitive biotype
# Protocol: as §1, §2, §4
# PAPRH = assay: as above; format: in vivo; settings: for activity, PAPRH resistant: resistant biotype; for activity, PAPRH resistant / activity, PAPRH Sensitive: (A) 90, (B) 1200, iodosulfuron 10 g of AS/ha; for activity, PAPRH Sensitive: sensitive biotype
# Protocol: as §1, §2, §4
# STEME [9] = assay: Greenhouse trial, different sowing depths (Table 6); format: in vivo, Stellaria media; settings: PE application, (A) 90, (B) 1200 g of AS/ha; for activity, STEME 5 mm: sowing depth 5 mm; for activity, STEME 20 mm: sowing depth 20 mm
# Protocol: as §1, §2, §3
# APESV = assay: as above; format: in vivo; settings: PE application, (A) 90, (B) 1200 g of AS/ha; for activity, APESV 5 mm: sowing depth 5 mm; for activity, APESV 20 mm: sowing depth 20 mm
# Protocol: as §1, §2, §3
# MATCH = assay: as above; format: in vivo, Matricaria chamomilla; settings: head prints PO application, (A) 90, (B) 1200 g of AS/ha; for activity, MATCH 5 mm: sowing depth 5 mm; for activity, MATCH 20 mm: sowing depth 20 mm
# Protocol: as §1, §2, §3
# VIOAR [10] = assay: as above; format: in vivo, Viola arvensis; settings: head prints PO application, (A) 90, (B) 1200 g of AS/ha; for activity, VIOAR 5 mm: sowing depth 5 mm; for activity, VIOAR 20 mm: sowing depth 20 mm
# Protocol: as §1, §2, §3
# [11] = Application 7 days prior to sowing
SMILES,"activity, VIOAR (VIOAR [1]; Incorporation) [%]","activity, VIOAR (VIOAR [1]; PE application) [%]","activity, VIOAR (VIOAR [2]) [%]","activity, STEME (STEME [3]) [%]","activity, LOLPE (LOLPE [4]) [%]","activity, HORVS (HORVS) [%]","activity, LOLPE (LOLPE [5]; [11]) [%]","activity, LOLPE (LOLPE [5]; PE application) [%]","activity, AVEFA (AVEFA; [11]) [%]","activity, AVEFA (AVEFA; PE application) [%]","activity, POOAN (POOAN; [11]) [%]","activity, POOAN (POOAN; PE application) [%]","activity, TRZAW (TRZAW) [%]","activity, TRZAS (TRZAS [6]) [%]","Difference resistant to sensitive Δ^D, LOLSS (LOLSS)","activity, LOLSS resistant (LOLSS) [%]","activity, LOLSS Sensitive (LOLSS) [%]","Difference resistant to sensitive Δ^D, PAPRH (PAPRH)","activity, PAPRH resistant (PAPRH) [%]","activity, PAPRH Sensitive (PAPRH) [%]",further results
"CC(C)N(C(=O)COc1nnc(C(F)(F)F)s1)c1ccc(F)cc1 [(A) flufenacet, N-(4-fluorophenyl)-N-(1-methylethyl)-2-[[5-(trifluoromethyl)-1,3,4-thiadiazol-2-yl]oxy]acetamide]",0,0,40,30,65,40,80,90,70,80,95,65,30,60,Δ^D −75%,10,85,Δ^D −15%,45,60,"Difference of the soil types Δ^D = A: activity IU/EC73 soil − B: activity IU soil, LOLPE (LOLPE [7]): Δ^D −22%; activity, LOLPE IU soil (LOLPE [7]): 97%; activity, LOLPE IU/EC73 soil (LOLPE [7]): 75%; Difference of the soil types Δ^D = A: activity IU/EC73 soil − B: activity IU soil, TRZAS (TRZAS [8]): Δ^D −33%; activity, TRZAS IU soil (TRZAS [8]): 33%; activity, TRZAS IU/EC73 soil (TRZAS [8]): 0%; activity, STEME 5 mm (STEME [9]): 0%; activity, STEME 20 mm (STEME [9]): 10%; activity, APESV 5 mm (APESV): 65%; activity, APESV 20 mm (APESV): 70%; activity, MATCH 5 mm (MATCH): 30%; activity, MATCH 20 mm (MATCH): 30%; activity, VIOAR 5 mm (VIOAR [10]): 50%; activity, VIOAR 20 mm (VIOAR [10]): 10%"
"CCCN(CCC)C(=O)SCc1ccccc1 [(B) prosulfocarb, S-(phenylmethyl) dipropylcarbamothioate]",0,20,50,30,60,30,0,80,10,80,20,35,35,10,Δ^D −20%,65,85,Δ^D +20%,70,50,"Difference of the soil types Δ^D = A: activity IU/EC73 soil − B: activity IU soil, LOLPE (LOLPE [7]): Δ^D −33%; activity, LOLPE IU soil (LOLPE [7]): 33%; activity, LOLPE IU/EC73 soil (LOLPE [7]): 0%; Difference of the soil types Δ^D = A: activity IU/EC73 soil − B: activity IU soil, TRZAS (TRZAS [8]): Δ^D −5%; activity, TRZAS IU soil (TRZAS [8]): 5%; activity, TRZAS IU/EC73 soil (TRZAS [8]): 0%; activity, STEME 5 mm (STEME [9]): 60%; activity, STEME 20 mm (STEME [9]): 50%; activity, APESV 5 mm (APESV): 50%; activity, APESV 20 mm (APESV): 20%; activity, MATCH 5 mm (MATCH): 0%; activity, MATCH 20 mm (MATCH): 0%; activity, VIOAR 5 mm (VIOAR [10]): 60%; activity, VIOAR 20 mm (VIOAR [10]): 20%"
COc1nc(C)nc(NC(=O)NS(=O)(=O)c2cc(I)ccc2C(=O)O)n1 [(C)^1 iodosulfuron],–,–,–,–,–,–,–,–,–,–,–,–,–,–,Δ^D −48%,50,98,Δ^D −40%,70,100,"Difference resistant to sensitive Δ^D, LOLSS (LOLSS; listed as standard product (C)): −48%"
